According to patent US9452154B2, “Methods for treating HCV” (Gilead Sciences, Inc., priority 2010, dated 2016):
Where two headings read alike, the source gives them in different places.

Legend:
HCV genotype 1a replicon [1] = test: Biological Example 3: HCV genotype 1a replicon assay, EC50; assay type: cell-based; conditions: Hepatitis C virus, 72 h, 3 days, read-out: EC50
Procedure: The HCV genotype 1a replicon cell line used in this study was described previously. The cells were grown in cell culture medium containing Dulbecco's Modified Eagle Medium (DMEM) with GlutaMAX (Gibco, Carlsbad, Calif., Cat#10569-044), supplemented with 10% FBS (HyClone, Logan, Utah, Cat#SH30071.03), 100 Units/mL Penicillin, 100 μg/mL Streptomycin (Gibco, Carlsbad, Calif., Cat#15140-122), and 0.1 mM non-essential amino acids (Gibco, Carlsbad, Calif., Cat#11140-050). Replicon cells were maintained in 0.5 mg/mL Geneticin (Invitrogen, Carlsbad, Calif., Cat#10131-035) to prevent the loss of HCV replicon. The cells were passaged every 3-4 days before reaching confluency.
(§1) [formula] where XC is the fluorescence signal from the compound-treated well; MB is the average fluorescence signal from puromycin-treated wells; MD is the average fluorescence signal from DMSO-treated wells. The anti-HCV replication activity was determined by the luminescence signal generated from the reporter renilla luciferase of the HCV replicon. The percent inhibition on HCV replicon was calculated using equation 1, where XC is the luminescence signal from compound-treated well; MB is average luminescence signal from the ITMN-191-treated wells; MD is the average luminescence signal from DMSO-treated wells.
(§2) Both CC50 and EC50 values were obtained using Pipeline Pilot 5.0 software package (Accelrys, San Diego, Calif.) by nonlinear regression fitting of experimental data to equation 2: […]

[2] = Biological Example 3: cytotoxicity (calcein AM), CC50; assay type: cell-based; conditions: human, Huh-7 cells carrying a HCV genotype 1a replicon; HCV genotype 1a replicon cells; calcein AM
Procedure: The HCV replicon assay was a multiplex assay which can assess both cytotoxicity and anti-replicon activity from the same well. The CC50 assay was performed first.
The cytotoxicity effect was determined by calcein AM conversion to fluorescent product. The percent cytotoxicity was calculated by equation 1:
as §1, §2

HCV genotype 1a replicon [3] = test: Biological Example 3: antiviral combination studies with Compound 4 (MacSynergy II); conditions: in combination with Compound 4
[4] = system: Huh-7 cells carrying a HCV genotype 1a replicon; test: Biological Example 3: cytotoxicity in combination studies (MacSynergy II); conditions: in combination with Compound 4
HCV 1b replicon system = test: Biological Example 5: antiviral combination studies with Compound 6 (MacSynergy II); assay type: cell-based; conditions: in combination with Compound 6
GT-1b Huh-lunet cells = test: Biological Example 4: antiviral combination studies with Compound 5 (MacSynergy II); assay type: cell-based, HCV; conditions: in combination with Compound 5, 1b replicon cells
[5] = system: NS3 GT1b mutant replicons; assay type: cell-based, HCV
Procedure: (§3) GT1b and GT1a replicons carrying Renilla Luciferase reporter were used to generate the mutant replicons. The mutations were introduced into the replicon construct by site-directed mutagenesis and confirmed by sequencing. Mutant replicon RNAs were generated from DNA by in vitro transcription and transfected into Huh-7 Lunet or C1 cells
(§4) Compounds were serially diluted 1:3 in 100% DMSO (Sigma). These serial dilutions were added to the cells at a 1:200 dilution to achieve a final concentration of 0.5% DMSO in a total volume of 200 μL. […] EC50 values were calculated using Prism.
(§5) For comparison, a fold change of 0-3 is considered “sensitive”, a fold change of 3-10 is considered “low”, a fold change of 10-50 is considered “medium” and a fold change of greater than […] is considered “high”.

[6] = system: NS3 GT1a mutant replicons; assay type: cell-based, HCV
Procedure: as §3, §4, §5

[7] = system: GT1b and GT1a mutant replicons; test: Biological Example 8: summary of cross resistance of mutant replicons; assay type: cell-based, HCV; conditions: triple class mutants that confer resistance to PI, NS5A and Compound 1
Procedure: as §3, §4, §5

COc1ccc2c(O[C@@H]3C[C@H]4C(=O)N[C@]5(P(=O)(O)Cc6c(F)cccc6F)C[C@H]5CCCCCCC[C@H](NC(=O)OC5CCCC5)C(=O)N4C3)cc(-c3csc(NC(C)C)n3)nc2c1Cl [Compound 2, (2R,6S,13aR,14aS,16aS)-2-(8-chloro-2-(2-(isopropylamino)thiazol-4-yl)-7-methoxyquinolin-4-yloxy)-6-(cyclopentyloxycarbonylamino)-5,16-dioxooctadecahydrocyclopropa[e]pyrrolo[1,2-a][1,4]diazacyclopentadecin-14a-yl(2,6-difluorobenzyl)phosphinic acid]
EC50 (HCV genotype 1a replicon [1]): 496 ± 135 nM
CC50 at 3 days [2]: > 22200 nM
Antagonism Volume (HCV genotype 1a replicon [3]): −2 ± 3 nM^2%
Interaction (HCV genotype 1a replicon [3]): Additivity (Additivity: ≦25 and >−25 nM^2%)
Synergy Volume (HCV genotype 1a replicon [3]): 22 ± 14 nM^2%
Antagonism Volume (cytotoxicity) [4]: 0 ± 0 nM^2%
Interaction (cytotoxicity) [4]: Additivity (Additivity: ≦25 and >−25 nM^2%)
Synergy Volume (cytotoxicity) [4]: 17 ± 14 nM^2%
Interaction (HCV 1b replicon system): Moderate Synergy
Interaction (GT-1b Huh-lunet cells): Additive
Synergy Volume (GT-1b Huh-lunet cells): 22 ± 12 nM^2

CC1=CC[C@H](C(=O)N(c2cc(C#CC(C)(C)C)sc2C(=O)O)[C@H]2CC[C@](O)(CO[C@H]3CCOC3)CC2)CC1 [Compound 5, 5-(3,3-dimethylbut-1-yn-1-yl)-3-[(cis-4-hydroxy-4-{[(3S)-tetrahydrofuran-3-yloxy]methyl}cyclohexyl){[(1R)-4-methylcyclohex-3-en-1-yl]carbonyl}amino]thiophene-2-carboxylic acid]
EC50 (HCV genotype 1a replicon [1]): 15 ± 2.4 nM
CC50 at 3 days [2]: > 44400 nM
fold change in EC50 vs wild-type GT1b ([5]; mutant A156D): 0.8 fold
fold change in EC50 vs wild-type GT1b ([5]; mutant A156G): 0.8 fold
fold change in EC50 vs wild-type GT1b ([5]; mutant A156T): 0.7 fold
fold change in EC50 vs wild-type GT1b ([5]; mutant A156V): 0.8 fold
fold change in EC50 vs wild-type GT1b ([5]; mutant D168A): 0.9 fold
fold change in EC50 vs wild-type GT1b ([5]; mutant D168E): 0.9 fold
fold change in EC50 vs wild-type GT1b ([5]; mutant D168E + L31V + Y448H): 0.8 fold
fold change in EC50 vs wild-type GT1b ([5]; mutant D168E + Y93H + Y448H): 0.5 fold
fold change in EC50 vs wild-type GT1b ([5]; mutant D168E + Y448H): 0.4 fold
fold change in EC50 vs wild-type GT1b ([5]; mutant D168G): 0.8 fold
fold change in EC50 vs wild-type GT1b ([5]; mutant D168H): 1.0 fold
fold change in EC50 vs wild-type GT1b ([5]; mutant D168H + C445F): 0.4 fold
fold change in EC50 vs wild-type GT1b ([5]; mutant D168L + C445F): 0.2 fold
fold change in EC50 vs wild-type GT1b ([5]; mutant D168N): 1.1 fold
fold change in EC50 vs wild-type GT1b ([5]; mutant D168T): 1.0 fold
fold change in EC50 vs wild-type GT1b ([5]; mutant D168V): 1.3 fold
fold change in EC50 vs wild-type GT1b ([5]; mutant D168V + C445F): 0.3 fold
fold change in EC50 vs wild-type GT1b ([5]; mutant D168V + L31V + Y448H): 0.6 fold
fold change in EC50 vs wild-type GT1b ([5]; mutant D168V + Y93H + Y448H): 0.6 fold
fold change in EC50 vs wild-type GT1b ([5]; mutant D168V + Y448H): 0.5 fold
fold change in EC50 vs wild-type GT1b ([5]; mutant D168Y): 1.1 fold
fold change in EC50 vs wild-type GT1b ([5]; mutant L31V + D168E): 1.3 fold
fold change in EC50 vs wild-type GT1b ([5]; mutant L31V + D168V): 1.1 fold
fold change in EC50 vs wild-type GT1b ([5]; mutant R155C): 0.6 fold
fold change in EC50 vs wild-type GT1b ([5]; mutant R155G): 0.8 fold
fold change in EC50 vs wild-type GT1b ([5]; mutant R155K): 1.2 fold
fold change in EC50 vs wild-type GT1b ([5]; mutant R155L): 0.8 fold
fold change in EC50 vs wild-type GT1b ([5]; mutant R155Q): 0.6 fold
fold change in EC50 vs wild-type GT1b ([5]; mutant R155W): 0.5 fold
fold change in EC50 vs wild-type GT1b ([5]; mutant Y93H + D168E): 1.0 fold
fold change in EC50 vs wild-type GT1b ([5]; mutant Y93H + D168V): 0.5 fold
fold change in EC50 vs wild-type GT1a ([6]; mutant A156T): 0.4 fold
fold change in EC50 vs wild-type GT1a ([6]; mutant D168A): 1.1 fold
fold change in EC50 vs wild-type GT1a ([6]; mutant D168E): 0.7 fold
fold change in EC50 vs wild-type GT1a ([6]; mutant D168G): 1.0 fold
fold change in EC50 vs wild-type GT1a ([6]; mutant D168H): 1.1 fold
fold change in EC50 vs wild-type GT1a ([6]; mutant D168N): 1.3 fold
fold change in EC50 vs wild-type GT1a ([6]; mutant D168V): 1.1 fold
fold change in EC50 vs wild-type GT1a ([6]; mutant D168Y): 0.7 fold
fold change in EC50 vs wild-type GT1a ([6]; mutant R155I): 0.7 fold
fold change in EC50 vs wild-type GT1a ([6]; mutant R155K): 0.8 fold
fold change in EC50 vs wild-type GT1a ([6]; mutant R155K + L31M): 0.4 fold
fold change in EC50 vs wild-type GT1a ([6]; mutant R155K + L31M + Y448H): 0.3 fold
fold change in EC50 vs wild-type GT1a ([6]; mutant R155K + M28T): 0.8 fold
fold change in EC50 vs wild-type GT1a ([6]; mutant R155K + M28T + Y448H): 0.3 fold
fold change in EC50 vs wild-type GT1a ([6]; mutant R155K + Q30H + Y448H): 0.5 fold
fold change in EC50 vs wild-type GT1a ([6]; mutant R155K + Q30R): 1.5 fold
fold change in EC50 vs wild-type GT1a ([6]; mutant R155K + Y93H): 0.6 fold
fold change in EC50 vs wild-type GT1a ([6]; mutant R155K + Y488H (first line, r20)): 1.0 fold
fold change in EC50 vs wild-type GT1a ([6]; mutant R155K + Y488H (second line, r26)): 0.6 fold
fold change in EC50 vs wild-type GT1a ([6]; mutant R155M): 0.7 fold
fold change in EC50 vs wild-type GT1a ([6]; mutant R155S): 0.5 fold
fold change in EC50 vs wild-type GT1a ([6]; mutant R155T): 0.6 fold
fold change in EC50 vs wild-type GT1a ([6]; mutant R155W): 1.0 fold
fold change in EC50 vs wild-type GT1a ([6]; mutant R155k + Q30H): 0.6 fold
Antagonism Volume (HCV genotype 1a replicon [3]): −1 ± 3 nM^2%
Synergy Volume (HCV genotype 1a replicon [3]): 26 ± 28 nM^2%
susceptibility of mutants [7]: susceptible
Antagonism Volume (cytotoxicity) [4]: −10 ± 7 nM^2%
Interaction (cytotoxicity) [4]: Additivity (Additivity: ≦25 and >−25 nM^2%)
Synergy Volume (cytotoxicity) [4]: 15 ± 8 nM^2%
